For data set [1], the system named is Candida albicans. Nature of the data set: Antimicrobial activity against Candida albicans CMCC98001 assessed as fungal growth inhibition incubated for 48 hrs by Sabouraud Dextrose broth based dilution assay. Format: functional.
Data set [2] can be described thus: Hemolytic activity in rabbit RBC incubated for 1 hr by absorbance based microplate reader assay. The note with it: rabbit red blood cells (erythrocytes). It counts as toxicity, cell-based, Oryctolagus cuniculus, Erythrocyte.
A further data set deals with Klebsiella pneumoniae. Nature of the data set: Antimicrobial activity against Klebsiella pneumoniae ATCC14581 assessed as bacterial growth inhibition incubated for 24 hrs by Muller Hinton broth based dilution assay. It counts as functional.
Data set [3] has as its system Staphylococcus aureus. Nature of the data set: Antimicrobial activity against Staphylococcus aureus ATCC29213 assessed as bacterial growth inhibition incubated for 24 hrs in presence of 3220 ug/mL Na+ by Muller Hinton broth based dilution assay. Format: functional.
In data set [4] the test system is Staphylococcus aureus. Nature of the data set: Antimicrobial activity against methicillin-resistant Staphylococcus aureus NCTC10442 assessed as bacterial growth inhibition incubated for 24 hrs in presence of 3220 ug/mL Na+ by Muller Hinton broth based dilution assay. It counts as functional.
Data set [5] has as its system Escherichia coli. The data set can be described thus: Antimicrobial activity against Escherichia coli ATCC25922 assessed as bacterial growth inhibition incubated for 24 hrs in presence of 175.5 ug/mL K+ by Muller Hinton broth based dilution assay. It counts as functional.
For data set [6], the system named is Candida albicans. Nature of the data set: Antimicrobial activity against Candida albicans ATCC10231 assessed as fungal growth inhibition incubated for 48 hrs in presence of 175.5 ug/mL K+ by Sabouraud Dextrose broth based dilution assay. Format: functional.
Data set [7] relates to Escherichia coli. Nature of the data set: Antimicrobial activity against Escherichia coli ATCC25922 assessed as bacterial growth inhibition incubated for 24 hrs in presence of 100 ug/mL Ca2+ by Muller Hinton broth based dilution assay. It counts as functional.
In data set [8] the test system is Candida albicans. The data set can be described thus: Antimicrobial activity against Candida albicans ATCC10231 assessed as fungal growth inhibition incubated for 48 hrs in presence of 100 ug/mL Ca2+ by Sabouraud Dextrose broth based dilution assay. It counts as functional.
In data set [9] the test system is Staphylococcus aureus. The data set can be described thus: Antimicrobial activity against Staphylococcus aureus ATCC29213 assessed as bacterial growth inhibition incubated for 24 hrs in presence of 24.3 ug/mL Mg2+ by Muller Hinton broth based dilution assay. Format: functional.
Another data set relates to Acinetobacter baumannii. Nature of the data set: Antimicrobial activity against Acinetobacter baumannii ATCC17978 assessed as bacterial growth inhibition incubated for 24 hrs in presence of 24.3 ug/mL Mg2+ by Muller Hinton broth based dilution assay. Format: functional.
Data set [10] has as its system Candida albicans. The data set can be described thus: Antimicrobial activity against Candida albicans ATCC10231 assessed as fungal growth inhibition incubated for 48 hrs in presence of 24.3 ug/mL Mg2+ by Sabouraud Dextrose broth based dilution assay. It counts as functional.
The subject of data set [11] is Candida albicans. Nature of the data set: Antimicrobial activity against Candida albicans ATCC10231 assessed as fungal killing at 4 times of MIC measured at 0.5 hr by time-kill kinetics assay. It counts as functional, organism-based.
The test system of data set [12] is Candida albicans. The data set can be described thus: Antimicrobial activity against Candida albicans ATCC10231 assessed as fungal killing at 8 times of MIC measured at 0.5 hr by time-kill kinetics assay. It counts as functional, organism-based.
Data set [13] has as its system Escherichia coli. The data set can be described thus: Induction of drug resistance in Escherichia coli ATCC25922 assessed as change in MIC at sub-inhibitory concentration incubated for 21 to 22 passages. It counts as functional.
The test system of data set [14] is Staphylococcus aureus. Nature of the data set: Antibiofilm activity against Staphylococcus aureus ATCC29213 assessed as inhibition of biofilm formation at 0.78 ug/mL incubated for 24 hrs by crystal violet staining based analysis relative to control. Format: functional.
For data set [15], the system named is Staphylococcus aureus. The data set can be described thus: Antibiofilm activity against Staphylococcus aureus ATCC29213 assessed as inhibition of biofilm formation at 3.125 ug/mL incubated for 24 hrs by crystal violet staining based analysis relative to control. Format: functional.
Data set [16] concerns Escherichia coli. The data set can be described thus: Disruption of preformed biofilm in Escherichia coli ATCC25922 assessed as residual preformed biofilm at 3.125 ug/mL incubated for 24 hrs by crystal violet staining based analysis relative to control. It counts as functional. The note with it: dose 3.125 µg/ml.
Data set [17] in a line: Cytotoxicity against mouse NCTC clone 929 cells assessed as viable cells at 50 ug/mL incubated for 24 hrs by CCK-8 assay relative to control. Format: toxicity, cell-based. The note with it: NCTC clone 929 (L929) cells, at 50 µg/mL, read-out: Activity.
The nature of data set [18]: Cytotoxicity against mouse corneal epithelial cells assessed as viable cells at 3.125 ug/mL incubated for 24 hrs by CCK-8 assay relative to control. Format: toxicity, cell-based, Corneal epithelial cell. The conditions noted are these: at 3.125 µg/mL, read-out: Activity.
Data set [19] in a line: Cytotoxicity against mouse corneal epithelial cells assessed as viable cells at 6.25 ug/mL incubated for 24 hrs by CCK-8 assay relative to control. It counts as toxicity, cell-based, Corneal epithelial cell. The conditions noted are these: at 6.25 µg/mL, read-out: Activity. Background: Formazan colour is commonly taken as a measure of viable cells.
The nature of data set [20]: Cytotoxicity against mouse corneal epithelial cells assessed as viable cells at 12.5 ug/mL incubated for 24 hrs by CCK-8 assay relative to control. It counts as toxicity, cell-based, Corneal epithelial cell. The conditions noted are these: at 12.5 µg/mL, read-out: Activity.
Data set [21] can be described thus: Cytotoxicity against mouse corneal epithelial cells assessed as viable cells at 25 ug/mL incubated for 24 hrs by CCK-8 assay relative to control. Format: toxicity, cell-based, Corneal epithelial cell. The note with it: at 25 µg/mL, read-out: Activity.
Data set [22] in a line: Cytotoxicity against mouse corneal epithelial cells assessed as viable cells at 50 ug/mL incubated for 24 hrs by CCK-8 assay relative to control. It counts as toxicity, cell-based, Corneal epithelial cell. The conditions noted are these: at 50 µg/mL, read-out: Activity.
The subject of data set [23] is Candida albicans. Nature of the data set: Antimicrobial activity against Candida albicans ATCC10231 assessed as fungal killing at 8 times of MIC measured at 1 hr by time-kill kinetics assay. It counts as functional, organism-based.

≈ marks a conversion by molar mass, not a printed value. Calls of active or inactive are those of the source. No cut-off for these calls is given here. Where only a bound is given, the exact number is not on record here.

`CCCCCCCCCN1CCCc2cc(OCCCCNC(=N)N)ccc21`: the MIC amounted to 0.78 µg/mL (≈ 2.01 µM) in the data set on Candida albicans [1]; 1.56 µg/mL (≈ 4.01 µM) in the data set on Klebsiella pneumoniae; 0.78 µg/mL in the data set on Staphylococcus aureus [3]; 0.78 µg/mL with Staphylococcus aureus [4]; 1.56 µg/mL in the data set on Escherichia coli [5]; 1.56 µg/mL in the data set with Candida albicans [6]. Besides, the MIC amounted to 3.12 µg/mL in the data set with Escherichia coli [7]; 1.56 µg/mL in the data set with Candida albicans [8]; 0.78 µg/mL with Staphylococcus aureus [9]; 3.12 µg/mL in the data set on Acinetobacter baumannii; 1.56 µg/mL in the data set with Candida albicans [10]. The same compound registered an HC50 at 1 h in data set [2] of more than 200 µg/mL. The result in the data set with Candida albicans [11] and in the data set on Candida albicans [12] was Active. Moreover, in the data set with Escherichia coli [13], the outcome was inactive. In addition, in the data set with Staphylococcus aureus [14], the inhibition at 0.78 µg/mL was determined as 91%. In addition, the inhibition at 3.125 µg/mL with Staphylococcus aureus [15] is 102%. Moreover, in the data set on Escherichia coli [16], the Activity came out at 32.54%. In addition, the viability at 24 h, 50 ug/mL in [17] was determined as 23.7%; in data set [22], 8.36%. The viability at 24 h, 3.125 ug/mL in data set [18] turned out to be 95.3%. For the same compound, the viability at 24 h, 6.25 ug/mL in data set [19] was 88.9%. In [20], the viability at 24 h, 12.5 ug/mL stood at 78%. Further, the viability at 24 h, 25 ug/mL in data set [21] turned out to be 57.7%.

With `CC(C)=CCN1CCCc2cc(OCCCCCCCCNC(=N)N)ccc21`, the MIC in the data set on Candida albicans [1] was found to be 0.78 µg/mL (≈ 2.02 µM); in the data set on Klebsiella pneumoniae it was 3.12 µg/mL (≈ 8.08 µM); with Staphylococcus aureus [3], 0.78 µg/mL; with Staphylococcus aureus [4], 0.78 µg/mL; with Escherichia coli [5], 3.12 µg/mL; in the data set with Candida albicans [6], 0.78 µg/mL. Besides, the MIC with Escherichia coli [7] amounted to 3.12 µg/mL; in the data set on Candida albicans [8] it was 1.56 µg/mL; in the data set with Staphylococcus aureus [9], 0.78 µg/mL; in the data set on Acinetobacter baumannii it was 3.12 µg/mL; with Candida albicans [10], 1.56 µg/mL. The compound further showed a concentration for 50% haemolysis (HC50) at 1 h in data set [2] of more than 200 µg/mL. Also, the outcome with Candida albicans [23] was Active. Besides, in the data set on Escherichia coli [13], the outcome was inactive. Further, the inhibition at 0.78 µg/mL in the data set on Staphylococcus aureus [14] was 93.6%. The inhibition at 3.125 µg/mL in the data set with Staphylococcus aureus [15] turned out to be 100%. In the data set with Escherichia coli [16], the Activity is reported as 47.23%. Moreover, the viability at 24 h, 50 ug/mL in data set [17] was found to be 29.9%; in data set [22], 36.3%. In addition, in data set [18], the viability at 24 h, 3.125 ug/mL turned out to be 99.7%. The viability at 24 h, 6.25 ug/mL in data set [19] is 93.6%. Also, the viability at 24 h, 12.5 ug/mL in data set [20] was 87.6%. Moreover, the viability at 24 h, 25 ug/mL in [21] amounted to 76.9%.

The MIC is the lowest concentration that inhibits growth of the organism. One may read the HC50 as the concentration giving 50% haemolysis. A high value points to weaker haemolysis. One may read the inhibition as the relative decrease from the control value, in per cent.
